Key:
[1] = Formaldehyde emission of N-formals, Dräger tubes (Example 9); format: physicochemical; conditions: pure N-formal, 1 g overnight in covered 400 ml beaker; for formaldehyde content: Dräger tubes (10 strokes)
Description: For this purpose, 1 g of each of the N-formals was left to stand overnight in a 400 ml beaker covered with para-film. On the following day, the formaldehyde content was then measured using Dräger tubes (10 strokes) as described in Example 1.
The formaldehyde content was 15 ppm (2 strokes 3 ppm) in 3,3′-methylenebis(tetrahydro-2H-1,3-oxazine) and 25 ppm (2 strokes 5 ppm) in Mar 71™. Preparations of 80% by weight of each N-formal and 20% by weight of 1,2-propylene glycol display a clearly different behavior. For example, the addition of 1,2-PLG to 3,3′-methylenebis(tetrahydro-2H-1,3-oxazine) leads to a reduction in the formaldehyde content to form 1.5 to 2.5 ppm (20 strokes) and the addition to Mar 71™ to a reduction to 10 ppm (5 strokes 5 ppm), the formaldehyde content being determined as described above for pure N-formals.

[2] = Stability and compatibility of IPBC with various N-formals, storage at +40° C. in clear glass (Example 2); format: physicochemical; conditions: discoloration and IPBC degradation
Description: The stability and compatibility of IPBC in compositions containing 3% by weight of IPBC, from 80 to 97% by weight of N-formals and […] by weight of 1,2-PLG were determined as a function of the storage time after the solutions had been stored at a temperature of +40° C. in clear glass.
The initially clear, colorless to slightly yellowish solutions became discoloured to varying degrees after storage for three months at a temperature of +40° C. Only the compositions based on IPBC and Mar 71 retained their clear, slightly yellowish appearance.
A summary of the development of the IPBC content, determined by means of HPLC (IPBC starting content 3% by weight) in the compositions investigated as a function of the storage period, is given in Table IV.

**Q.** With C1COCN(CN2CCCOC2)C1 [3,3′-methylenebis(tetrahydro-2H-1,3-oxazine), reference compound] as the molecule, how does the “formaldehyde content, reading at 2 strokes” value [1] read?
**A.** The value was 3 ppm.

**Q.** What about the formaldehyde content [1] of the same molecule?
**A.** The formaldehyde content was 15 ppm.

**Q.** For OCCN1CN(CCO)CN(CCO)C1 [Grotan BK TM, 1,3,5-tris(hydroxyethyl)hexahydrotriazine], which “Compatibility with IPBC” value [2] is on record?
**A.** The value was “incompatible”.

**Q.** Which “formaldehyde content, reading at 2 strokes” value [1] does the source give for CC1CN(CN2COC(C)C2)CO1 (centres unmarked) [Mar 71™, 3,3′-methylenebis(5-methyloxazolidine)] here?
**A.** Its value is 5 ppm.

**Q.** And the formaldehyde content [1]?
**A.** The formaldehyde content was 25 ppm.
